# Laboratory results as given in the NIST ThermoML archive (doi:10.1021/acs.jced.8b00610).
# “And” between values parts separate entries of the source, which are not always exact repeats. Identical values can stand only once. ± gives the expanded uncertainty stated by the source.
# Conditions: Liquid, Ebulliometric method (Recirculating still)
vapor or sublimation pressure (373.1 K),vapor or sublimation pressure (355.7 K),SMILES
101.3 ± 1.4 kPa,,O [water]
,101.3 ± 1.4 kPa and 101.32 ± 10 kPa,CC(C)O [propan-2-ol]
